Reference: paper PMC10683027, “Discovery of tert-Butyl Ester Based 6-Diazo-5-oxo-L-norleucine Prodrugs for Enhanced Metabolic Stability and Tumor Delivery” (Journal of Medicinal Chemistry, 2023)

Tests used:
[1] = Metabolic stability in mouse plasma; conditions: for Plasma: supplementary CSV, unit not given, matches Table 1 % remaining at 1 h, in %
[2] = Metabolic stability in mouse intestinal homogenate (GIh); conditions: for remaining at 1 h, 10 µM / remaining at 1 h, 10 μM: CES1–/–, mouse, intestinal homogenate; for Intestinal homogenate: supplementary CSV, unit not given, matches Table 1 % remaining at 1 h, in %
[3] = Single time point pharmacokinetic screening, released DON in plasma and tumor of EL4 tumor-bearing mice; format: in vivo, C57BL/6/CES1–/– mice; conditions: 1 mg/kg DON equivalent SC; 30 min
Experimental: C57BL/6/CES1^–/– mice were obtained as a gift from the United States Army Medical Research Institute of Chemical Defense, Maryland, USA; breeding was performed in the Johns Hopkins animal facility and was conducted according to protocols reviewed and approved by the Johns Hopkins Institutional Animal Care and Use Committee in compliance with the Association for Assessment and Accreditation of Laboratory Animal Care International (AAALAC) and the Public Health Service Policy on the Humane Care and Use of Laboratory Animals (PHS Policy). Male and female C57BL/6 mice (weighing between 25 and 30 g) 6–8 weeks of age were used for the study. The animals were maintained on a 12 h light–dark cycle with ad libitum access to food (certified laboratory food: Teklad 18% Protein Extruded Rodent Diet) and water. EL4 mouse lymphoma cells were obtained as a gift from the laboratory of Dr. Jonathan Powell (Johns Hopkins University, Baltimore, MD) and maintained in RPMI 1640 medium 1X (Corning, cat. no. 10-040-CV) with 10% (v/v) fetal bovine serum (Corning, cat. no. 35-011-CV), 1% (v/v) antimycotic/antibiotic (Corning, cat. no. 30-004-CI), 2 mM L-glutamine (Corning, cat. no. 25-005-CI), and 10 mM HEPES (Corning, cat. no. 25-060-CI) in a 5% (v/v) CO2 and 95% (v/v) air incubator prior to subcutaneous (SC) injection (1 × 10^6 cells in 0.2 mL of phosphate-buffered saline) on the flank of each mouse. […]

SMILES | remaining at 1 h, 10 µM ([1]; CES1–/–, mouse, plasma) [%] | Plasma [1] | remaining at 1 h, 10 µM [2] [%] | Intestinal homogenate [2] | remaining at 1 h, 10 μM [2] [%] | preferential DON tumor versus plasma delivery [3] | remaining at 1 h, 10 μM ([1]; CES1–/–, mouse, plasma) [%]
CC(=O)N[C@@H](Cc1c[nH]c2ccccc12)C(=O)N[C@@H](CCC(=O)C=[N+]=[N-])C(=O)OC1CC1 [Prodrug P3, Cyclopropyl (S)-2-((S)-2-Acetamido-3-(1H-indol-3-yl)propanamido)-6-diazo-5-oxohexanoate] |  |  | 6 | 6 ± 0 | < 10 |  | 
CN(C)CC(=O)N[C@@H](Cc1c[nH]c2ccccc12)C(=O)N[C@@H](CCC(=O)C=[N+]=[N-])C(=O)OC(C)(C)C [Prodrug P9, tert-Butyl (S)-6-Diazo-2-((S)-2-(2-(dimethylamino)acetamido)-3-(1H-indol-3-yl)propanamido)-5-oxohexanoate] | 102 ± 2 | 102 ± 2 | 66 ± 1 | 66 ± 1 |  |  | 
CC(C)(C)OC(=O)[C@H](CCC(=O)C=[N+]=[N-])NC(=O)[C@H](Cc1c[nH]c2ccccc12)NC(=O)CN1CCOCC1 [Prodrug P7, tert-Butyl (S)-2-((S)-3-(1H-Indol-3-yl)-2-(2-morpholinoacetamido)propanamido)-6-diazo-5-oxohexanoate] | 95 ± 3 |  | 83 ± 1 | 83 ± 1 |  |  | 
CNC(=O)[C@H](CCC(=O)C=[N+]=[N-])NC(=O)[C@H](Cc1c[nH]c2ccccc12)NC(C)=O [Prodrug P6, (S)-2-((S)-2-Acetamido-3-(1H-indol-3-yl)propanamido)-6-diazo-N-methyl-5-oxohexanamide] | 102 ± 1 | 102 ± 1 | 77 ± 1 | 77 ± 1 | > 50 |  | 
CN(C)CC(=O)N[C@@H](CCc1ccccc1)C(=O)N[C@@H](CCC(=O)C=[N+]=[N-])C(=O)OC(C)(C)C [Prodrug P14, tert-Butyl (S)-6-Diazo-2-((S)-2-(2-(dimethylamino)acetamido)-4-phenylbutanamido)-5-oxohexanoate] | 102 ± 2 | 102 ± 2 | 97 ± 3 | 97 ± 3 |  | maintained the preferential DON tumor versus plasma delivery | 
CCOC(=O)[C@H](CCC(=O)C=[N+]=[N-])NC(=O)[C@H](Cc1c[nH]c2ccccc12)NC(C)=O [Prodrug P2, Ethyl (S)-2-((S)-2-Acetamido-3-(1H-indol-3-yl)propanamido)-6-diazo-5-oxohexanoate] |  |  | 2 | 2 ± 0 | < 10 |  | 
CC(=O)N[C@@H](Cc1c[nH]c2ccccc12)C(=O)N[C@@H](CCC(=O)C=[N+]=[N-])C(=O)OCC1CC1 [Prodrug P4, Cyclopropylmethyl (S)-2-((S)-2-Acetamido-3-(1H-indol-3-yl)propanamido)-6-diazo-5-oxohexanoate] |  |  | 1 | 1 ± 0 | < 10 |  | 
COC(=O)[C@H](CCC(=O)C=[N+]=[N-])NC(=O)[C@H](Cc1c[nH]c2ccccc12)NC(C)=O [Prodrug P1, Methyl (S)-2-((S)-2-Acetamido-3-(1H-indol-3-yl)propanamido)-6-diazo-5-oxohexanoate] |  |  | 4 | 4 ± 0 | < 10 |  | 
CN(C)CC(=O)N[C@H](C(=O)N[C@@H](CCC(=O)C=[N+]=[N-])C(=O)OC(C)(C)C)c1ccccc1 [Prodrug P13, tert-Butyl (S)-6-Diazo-2-((S)-2-(2-(dimethylamino)acetamido)-2-phenylacetamido)-5-oxohexanoate] |  | 92 ± 1 |  | 92 ± 1 | 92 ± 1 |  | 92 ± 1
CN(C)CC(=O)NCC(=O)N[C@@H](CCC(=O)C=[N+]=[N-])C(=O)OC(C)(C)C [Prodrug P18, tert-Butyl (S)-6-Diazo-2-(2-(2-(dimethylamino)acetamido)acetamido)-5-oxohexanoate] | 108 ± 1 | 108 ± 1 | 97 ± 1 | 97 ± 1 |  |  | 
CC(=O)N[C@@H](Cc1c[nH]c2ccccc12)C(=O)N[C@@H](CCC(=O)C=[N+]=[N-])C(=O)OC(C)(C)C [Prodrug P5, tert-Butyl (S)-2-((S)-2-Acetamido-3-(1H-indol-3-yl)propanamido)-6-diazo-5-oxohexanoate] | 92 ± 1 | 92 ± 1 | 99 ± 1 | 99 ± 1 | > 50 |  | 

Second part, led by results:

remaining at 1 h, 10 µM ([1]; CES1–/–, mouse, plasma) [%] | Plasma [1] | remaining at 1 h, 10 µM [2] [%] | Intestinal homogenate [2] | remaining at 1 h, 10 μM [2] [%] | SMILES | preferential DON tumor versus plasma delivery [3] | remaining at 1 h, 10 μM ([1]; CES1–/–, mouse, plasma) [%]
99 ± 2 | 99 ± 2 | 86 ± 4 | 86 ± 4 |  | C[C@H](NC(=O)CN(C)C)C(=O)N[C@@H](CCC(=O)C=[N+]=[N-])C(=O)OC(C)(C)C [Prodrug P19, tert-Butyl (S)-6-Diazo-2-((S)-2-(2-(dimethylamino)acetamido)propanamido)-5-oxohexanoate] |  | 
98 ± 3 | 98 ± 3 | 68 ± 1 | 68 ± 1 |  | CN(C)CC(=O)N[C@@H](CC(C)(C)C)C(=O)N[C@@H](CCC(=O)C=[N+]=[N-])C(=O)OC(C)(C)C [Prodrug P21, tert-Butyl (S)-6-Diazo-2-((S)-2-(2-(dimethylamino)acetamido)-4,4-dimethylpentanamido)-5-oxohexanoate] |  | 
97 ± 2 | 97 ± 2 | 87 ± 2 | 87 ± 2 |  | CN(C)CC(=O)N[C@@H](Cc1cn(C)c2ccccc12)C(=O)N[C@@H](CCC(=O)C=[N+]=[N-])C(=O)OC(C)(C)C [Prodrug P10, tert-Butyl (S)-6-Diazo-2-((S)-2-(2-(dimethylamino)acetamido)-3-(1-methyl-1H-indol-3-yl)propanamido)-5-oxohexanoate] |  | 
70 ± 14 | 70 ± 14 | 76 ± 1 | 76 ± 1 |  | CN(C)CC(=O)N[C@@H](Cc1ccc(C(F)(F)F)cc1)C(=O)N[C@@H](CCC(=O)C=[N+]=[N-])C(=O)OC(C)(C)C [Prodrug P17, tert-Butyl (S)-6-Diazo-2-((S)-2-(2-(dimethylamino)acetamido)-3-(4-(trifluoromethyl)phenyl)propanamido)-5-oxohexanoate] |  | 
108 ± 1 | 108 ± 1 | 67 ± 1 | 67 ± 1 |  | CN(C)CC(=O)N[C@@H](Cc1ccc(F)cc1)C(=O)N[C@@H](CCC(=O)C=[N+]=[N-])C(=O)OC(C)(C)C [Prodrug P15, tert-Butyl (S)-6-Diazo-2-((S)-2-(2-(dimethylamino)acetamido)-3-(4-fluorophenyl)propanamido)-5-oxohexanoate] |  | 
92 | 92 ± 0 | 90 ± 3 | 90 ± 3 |  | CN(C)CC(=O)N[C@H](Cc1ccccc1)C(=O)N[C@@H](CCC(=O)C=[N+]=[N-])C(=O)OC(C)(C)C [Prodrug P12, tert-Butyl (S)-6-Diazo-2-((R)-2-(2-(dimethylamino)acetamido)-3-phenylpropanamido)-5-oxohexanoate] |  | 
99 ± 3 | 99 ± 3 | 69 ± 7 | 69 ± 7 |  | CN(C)CC(=O)N[C@@H](Cc1cccc(F)c1)C(=O)N[C@@H](CCC(=O)C=[N+]=[N-])C(=O)OC(C)(C)C [Prodrug P16, tert-Butyl (S)-6-Diazo-2-((S)-2-(2-(dimethylamino)acetamido)-3-(3-fluorophenyl)propanamido)-5-oxohexanoate] |  | 
98 ± 2 | 98 ± 2 | 79 | 79 ± 0 |  | CC(C)C[C@H](NC(=O)CN(C)C)C(=O)N[C@@H](CCC(=O)C=[N+]=[N-])C(=O)OC(C)(C)C [Prodrug P20, tert-Butyl (S)-6-Diazo-2-((S)-2-(2-(dimethylamino)acetamido)-4-methylpentanamido)-5-oxohexanoate] |  | 
